Assay results: publication PMC8080530, “Glucocorticoid receptor Thr524 phosphorylation by MINK1 induces interactions with 14-3-3 protein regulators” (The Journal of Biological Chemistry, 2021)
Non-standard residues stand in square brackets, D forms with d. Residues, ends and D or L forms follow the SMILES beside them. pT = C[C@@H](OP(=O)(O)O)[C@H](N)C(=O)O; pS = N[C@@H](COP(=O)(O)O)C(=O)O

The molecules below were run against T1, 14-3-3ζ (Homo sapiens, UniProt P63104) (assay: FP assay with GR phosphorylated peptides and 14-3-3ζ). Details: FP, doubly phosphorylated 31-mer peptides, triplicates; read-out: Kd with 14-3-3ζ (values in nM).
T1 construct: Full-length expression and purification of 14-3-3; made in house; host or cells: E. coli BL21 (DE3)STAR
T1 sequence (P63104 1-245): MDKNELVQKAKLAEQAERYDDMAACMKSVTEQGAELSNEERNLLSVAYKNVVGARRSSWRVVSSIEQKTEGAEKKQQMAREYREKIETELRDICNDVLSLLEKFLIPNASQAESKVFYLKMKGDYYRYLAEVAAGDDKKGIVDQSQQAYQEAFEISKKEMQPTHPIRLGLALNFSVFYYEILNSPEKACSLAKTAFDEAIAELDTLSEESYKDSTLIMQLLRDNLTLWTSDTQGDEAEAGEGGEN
Format: binding
Description: After 30-min incubation at RT, the plates were read on a plate reader PHERAstar (BMG LABTECH GmbH) for FP signal using […] and standard excitation (485 nm) and emission (520 nm). Measurements were performed as triplicates. Binding data were fit to a standard Hill equation using the software Genedata Screener. The figures were made using the software GraphPad Prism 8. FP data were expressed as millipolarization (mP) units, and the dynamic range (ΔmP) was the difference of the signals from the bound peptide and free peptide. Errors are the standard error of the fit.

Row | SMILES | Kd [nM]
1 | CC[C@H](C)[C@H](NC(=O)[C@@H](NC(=O)[C@@H](N)CCCCN)[C@@H](C)O)C(=O)N[C@H](C(=O)N1CCC[C@H]1C(=O)N[C@@H](C)C(=O)N[C@H](C(=O)N[C@@H](CC(C)C)C(=O)N1CCC[C@H]1C(=O)N[C@@H](CCC(N)=O)C(=O)N[C@@H](CC(C)C)C(=O)N[C@H](C(=O)N1CCC[C@H]1C(=O)NCC(=O)NCC(=O)NCC(=O)NCC(=O)NCC(=O)N[C@@H](CCCNC(=N)N)C(=O)N[C@@H](CO)C(=O)N[C@@H](Cc1ccc(O)cc1)C(=O)N[C@@H](C)C(=O)N[C@@H](CCC(N)=O)C(=O)N[C@@H](CO)C(=O)N[C@@H](COP(=O)(O)O)C(=O)N[C@@H](C)C(=O)N[C@@H](CC(N)=O)C(=O)N[C@@H](CC(C)C)C(=O)N[C@@H](CC(C)C)C(=O)N[C@@H](CS)C(=O)N[C@@H](Cc1ccccc1)C(=O)O)[C@@H](C)O)[C@@H](C)OP(=O)(O)O)C(C)C [GR_R614A] (H-KTIVPA[pT]LPQLTPGGGGGRSYAQS[pS]ANLLCF-OH) | 220

Same assay, conditions: read-out: PKd with 14-3-3ζ (converted)

Row | SMILES | Kd [nM]
2 | CC[C@H](C)[C@H](NC(=O)[C@@H](NC(=O)[C@@H](N)CCCCN)[C@@H](C)O)C(=O)N[C@H](C(=O)N1CCC[C@H]1C(=O)N[C@@H](C)C(=O)N[C@H](C(=O)N[C@@H](CC(C)C)C(=O)N1CCC[C@H]1C(=O)N[C@@H](CCC(N)=O)C(=O)N[C@@H](CC(C)C)C(=O)N[C@H](C(=O)N1CCC[C@H]1C(=O)NCC(=O)NCC(=O)NCC(=O)NCC(=O)NCC(=O)N[C@@H](CCCNC(=N)N)C(=O)N[C@@H](CO)C(=O)N[C@@H](Cc1ccc(O)cc1)C(=O)N[C@@H](CCCNC(=N)N)C(=O)N[C@@H](C)C(=O)N[C@@H](CO)C(=O)N[C@@H](COP(=O)(O)O)C(=O)N[C@@H](C)C(=O)N[C@@H](CC(N)=O)C(=O)N[C@@H](CC(C)C)C(=O)N[C@@H](CC(C)C)C(=O)N[C@@H](CS)C(=O)N[C@@H](Cc1ccccc1)C(=O)O)[C@@H](C)O)[C@@H](C)OP(=O)(O)O)C(C)C [GR_Q615A] (H-KTIVPA[pT]LPQLTPGGGGGRSYRAS[pS]ANLLCF-OH) | 39.8
3 | CC[C@H](C)[C@H](NC(=O)[C@@H](NC(=O)[C@@H](N)CCCCN)[C@@H](C)O)C(=O)N[C@H](C(=O)N1CCC[C@H]1C(=O)N[C@@H](C)C(=O)N[C@H](C(=O)N[C@@H](CC(C)C)C(=O)N1CCC[C@H]1C(=O)N[C@@H](CCC(N)=O)C(=O)N[C@@H](CC(C)C)C(=O)N[C@H](C(=O)N1CCC[C@H]1C(=O)NCC(=O)NCC(=O)NCC(=O)NCC(=O)NCC(=O)N[C@@H](C)C(=O)N[C@@H](CO)C(=O)N[C@@H](Cc1ccc(O)cc1)C(=O)N[C@@H](CCCNC(=N)N)C(=O)N[C@@H](CCC(N)=O)C(=O)N[C@@H](CO)C(=O)N[C@@H](COP(=O)(O)O)C(=O)N[C@@H](C)C(=O)N[C@@H](CC(N)=O)C(=O)N[C@@H](CC(C)C)C(=O)N[C@@H](CC(C)C)C(=O)N[C@@H](CS)C(=O)N[C@@H](Cc1ccccc1)C(=O)O)[C@@H](C)O)[C@@H](C)OP(=O)(O)O)C(C)C [GR_R611A] (H-KTIVPA[pT]LPQLTPGGGGGASYRQS[pS]ANLLCF-OH) | 50.1
4 | CC[C@H](C)[C@H](NC(=O)[C@@H](NC(=O)[C@@H](N)CCCCN)[C@@H](C)O)C(=O)N[C@H](C(=O)N1CCC[C@H]1C(=O)N[C@@H](C)C(=O)N[C@H](C(=O)N[C@@H](CC(C)C)C(=O)N1CCC[C@H]1C(=O)N[C@@H](CCC(N)=O)C(=O)N[C@@H](CC(C)C)C(=O)N[C@H](C(=O)N1CCC[C@H]1C(=O)NCC(=O)NCC(=O)NCC(=O)NCC(=O)NCC(=O)N[C@@H](CCCNC(=N)N)C(=O)N[C@@H](C)C(=O)N[C@@H](Cc1ccc(O)cc1)C(=O)N[C@@H](CCCNC(=N)N)C(=O)N[C@@H](CCC(N)=O)C(=O)N[C@@H](CO)C(=O)N[C@@H](COP(=O)(O)O)C(=O)N[C@@H](C)C(=O)N[C@@H](CC(N)=O)C(=O)N[C@@H](CC(C)C)C(=O)N[C@@H](CC(C)C)C(=O)N[C@@H](CS)C(=O)N[C@@H](Cc1ccccc1)C(=O)O)[C@@H](C)O)[C@@H](C)OP(=O)(O)O)C(C)C [GR_S612A] (H-KTIVPA[pT]LPQLTPGGGGGRAYRQS[pS]ANLLCF-OH) | 31.6
5 | CC[C@H](C)[C@H](NC(=O)[C@@H](NC(=O)[C@@H](N)CCCCN)[C@@H](C)O)C(=O)N[C@H](C(=O)N1CCC[C@H]1C(=O)N[C@@H](C)C(=O)N[C@H](C(=O)N[C@@H](CC(C)C)C(=O)N1CCC[C@H]1C(=O)N[C@@H](CCC(N)=O)C(=O)N[C@@H](CC(C)C)C(=O)N[C@H](C(=O)N1CCC[C@H]1C(=O)NCC(=O)NCC(=O)NCC(=O)NCC(=O)NCC(=O)N[C@@H](CCCNC(=N)N)C(=O)N[C@@H](CO)C(=O)N[C@@H](Cc1ccc(O)cc1)C(=O)N[C@@H](CCCNC(=N)N)C(=O)N[C@@H](CCC(N)=O)C(=O)N[C@@H](C)C(=O)N[C@@H](COP(=O)(O)O)C(=O)N[C@@H](C)C(=O)N[C@@H](CC(N)=O)C(=O)N[C@@H](CC(C)C)C(=O)N[C@@H](CC(C)C)C(=O)N[C@@H](CS)C(=O)N[C@@H](Cc1ccccc1)C(=O)O)[C@@H](C)O)[C@@H](C)OP(=O)(O)O)C(C)C [GR_S616A] (H-KTIVPA[pT]LPQLTPGGGGGRSYRQA[pS]ANLLCF-OH) | 63.1
6 | CC[C@H](C)[C@H](NC(=O)[C@H](C)NC(=O)[C@@H](N)CCCCN)C(=O)N[C@H](C(=O)N1CCC[C@H]1C(=O)N[C@@H](C)C(=O)N[C@H](C(=O)N[C@@H](CC(C)C)C(=O)N1CCC[C@H]1C(=O)N[C@@H](CCC(N)=O)C(=O)N[C@@H](CC(C)C)C(=O)N[C@H](C(=O)N1CCC[C@H]1C(=O)NCC(=O)NCC(=O)NCC(=O)NCC(=O)NCC(=O)N[C@@H](CCCNC(=N)N)C(=O)N[C@@H](CO)C(=O)N[C@@H](Cc1ccc(O)cc1)C(=O)N[C@@H](CCCNC(=N)N)C(=O)N[C@@H](CCC(N)=O)C(=O)N[C@@H](CO)C(=O)N[C@@H](COP(=O)(O)O)C(=O)N[C@@H](C)C(=O)N[C@@H](CC(N)=O)C(=O)N[C@@H](CC(C)C)C(=O)N[C@@H](CC(C)C)C(=O)N[C@@H](CS)C(=O)N[C@@H](Cc1ccccc1)C(=O)O)[C@@H](C)O)[C@@H](C)OP(=O)(O)O)C(C)C [GR_T519A] (H-KAIVPA[pT]LPQLTPGGGGGRSYRQS[pS]ANLLCF-OH) | 63.1
7 | CC[C@H](C)[C@H](NC(=O)[C@@H](NC(=O)[C@@H](N)CCCCN)[C@@H](C)O)C(=O)N[C@H](C(=O)N1CCC[C@H]1C(=O)N[C@@H](C)C(=O)N[C@@H](C)C(=O)N[C@@H](CC(C)C)C(=O)N1CCC[C@H]1C(=O)N[C@@H](CCC(N)=O)C(=O)N[C@@H](CC(C)C)C(=O)N[C@H](C(=O)N1CCC[C@H]1C(=O)NCC(=O)NCC(=O)NCC(=O)NCC(=O)NCC(=O)N[C@@H](CCCNC(=N)N)C(=O)N[C@@H](CO)C(=O)N[C@@H](Cc1ccc(O)cc1)C(=O)N[C@@H](CCCNC(=N)N)C(=O)N[C@@H](CCC(N)=O)C(=O)N[C@@H](CO)C(=O)N[C@@H](COP(=O)(O)O)C(=O)N[C@@H](C)C(=O)N[C@@H](CC(N)=O)C(=O)N[C@@H](CC(C)C)C(=O)N[C@@H](CC(C)C)C(=O)N[C@@H](CS)C(=O)N[C@@H](Cc1ccccc1)C(=O)O)[C@@H](C)O)C(C)C [GR_T524A-pS617] (H-KTIVPAALPQLTPGGGGGRSYRQS[pS]ANLLCF-OH) | 126000
8 | CC[C@H](C)[C@H](NC(=O)[C@@H](NC(=O)[C@@H](N)CCCCN)[C@@H](C)O)C(=O)N[C@H](C(=O)N1CCC[C@H]1C(=O)N[C@@H](C)C(=O)N[C@H](C(=O)N[C@@H](CC(C)C)C(=O)N1CCC[C@H]1C(=O)N[C@@H](CCC(N)=O)C(=O)N[C@@H](CC(C)C)C(=O)N[C@@H](C)C(=O)N1CCC[C@H]1C(=O)NCC(=O)NCC(=O)NCC(=O)NCC(=O)NCC(=O)N[C@@H](CCCNC(=N)N)C(=O)N[C@@H](CO)C(=O)N[C@@H](Cc1ccc(O)cc1)C(=O)N[C@@H](CCCNC(=N)N)C(=O)N[C@@H](CCC(N)=O)C(=O)N[C@@H](CO)C(=O)N[C@@H](COP(=O)(O)O)C(=O)N[C@@H](C)C(=O)N[C@@H](CC(N)=O)C(=O)N[C@@H](CC(C)C)C(=O)N[C@@H](CC(C)C)C(=O)N[C@@H](CS)C(=O)N[C@@H](Cc1ccccc1)C(=O)O)[C@@H](C)OP(=O)(O)O)C(C)C [GR_T529A] (H-KTIVPA[pT]LPQLAPGGGGGRSYRQS[pS]ANLLCF-OH) | 50.1
9 | CC[C@H](C)[C@H](NC(=O)[C@@H](NC(=O)[C@@H](N)CCCCN)[C@@H](C)O)C(=O)N[C@@H](C)C(=O)N1CCC[C@H]1C(=O)N[C@@H](C)C(=O)N[C@H](C(=O)N[C@@H](CC(C)C)C(=O)N1CCC[C@H]1C(=O)N[C@@H](CCC(N)=O)C(=O)N[C@@H](CC(C)C)C(=O)N[C@H](C(=O)N1CCC[C@H]1C(=O)NCC(=O)NCC(=O)NCC(=O)NCC(=O)NCC(=O)N[C@@H](CCCNC(=N)N)C(=O)N[C@@H](CO)C(=O)N[C@@H](Cc1ccc(O)cc1)C(=O)N[C@@H](CCCNC(=N)N)C(=O)N[C@@H](CCC(N)=O)C(=O)N[C@@H](CO)C(=O)N[C@@H](COP(=O)(O)O)C(=O)N[C@@H](C)C(=O)N[C@@H](CC(N)=O)C(=O)N[C@@H](CC(C)C)C(=O)N[C@@H](CC(C)C)C(=O)N[C@@H](CS)C(=O)N[C@@H](Cc1ccccc1)C(=O)O)[C@@H](C)O)[C@@H](C)OP(=O)(O)O [GR_V521A] (H-KTIAPA[pT]LPQLTPGGGGGRSYRQS[pS]ANLLCF-OH) | 39.8
